What all share (assay): biochemical
Common to all, as to parameters: KINOMEscan competition binding panel (Eurofins DiscoverX), single concentration, percent inhibition
Conditions in all cases: read-out: 15 at 1 µM % inhibition

One assay concerns the target T1, NDR2 (Homo sapiens, UniProt Q9Y2H1).
T1 construct: gene STK38L
How it is done: (§1) KinomeScan® Assay on 7 and 15 was performed as previously described by EuroFins DiscoverX [24]. GSK114 (7) and 15 were submitted for a KINOMEscan® assay to explore the selectivity profile across >400 human kinases at a compound concentration of 1 µM. […] GSK114 (7) is a narrow-spectrum TNNi3K inhibitor but has some potent off-targets including GAK which has been previously reported for this chemotype. […] If utilized together this set of compounds could be useful to investigate TNNi3K biology.

The target of another assay is BRSK2 (Homo sapiens, UniProt Q8IWQ3). Here is the method:
as §1

The next assay addresses T2, PCTK2 (Homo sapiens, UniProt Q00537).
T2 construct: gene CDK17
How it is done: as §1

For the next assay, the target named is TXK (Homo sapiens, UniProt P42681). Here is the method: as §1
In another assay the target is MUSK (Homo sapiens, UniProt O15146). Here is the method:
as §1

Another assay has as its target LYN (Homo sapiens, UniProt P07948). Here is the method:
as §1

The target of another assay is T3, ADCK3 (Homo sapiens, UniProt Q8NI60).
T3 construct: gene COQ8A
How it is done: as §1

For the next assay, the target named is DDR2 (Homo sapiens, UniProt Q16832). How it is done:
as §1

For a further assay, the target named is PIK3CA(E545A) (Homo sapiens, UniProt P42336, E545A). Here is the method:
as §1

The target of the next assay is EPHA5 (Homo sapiens, UniProt P54756). How it is done: as §1
In another assay the target is ERBB2 (Homo sapiens, UniProt P04626). Here is the method: as §1
Chain of ERBB2 (P04626 whole entry): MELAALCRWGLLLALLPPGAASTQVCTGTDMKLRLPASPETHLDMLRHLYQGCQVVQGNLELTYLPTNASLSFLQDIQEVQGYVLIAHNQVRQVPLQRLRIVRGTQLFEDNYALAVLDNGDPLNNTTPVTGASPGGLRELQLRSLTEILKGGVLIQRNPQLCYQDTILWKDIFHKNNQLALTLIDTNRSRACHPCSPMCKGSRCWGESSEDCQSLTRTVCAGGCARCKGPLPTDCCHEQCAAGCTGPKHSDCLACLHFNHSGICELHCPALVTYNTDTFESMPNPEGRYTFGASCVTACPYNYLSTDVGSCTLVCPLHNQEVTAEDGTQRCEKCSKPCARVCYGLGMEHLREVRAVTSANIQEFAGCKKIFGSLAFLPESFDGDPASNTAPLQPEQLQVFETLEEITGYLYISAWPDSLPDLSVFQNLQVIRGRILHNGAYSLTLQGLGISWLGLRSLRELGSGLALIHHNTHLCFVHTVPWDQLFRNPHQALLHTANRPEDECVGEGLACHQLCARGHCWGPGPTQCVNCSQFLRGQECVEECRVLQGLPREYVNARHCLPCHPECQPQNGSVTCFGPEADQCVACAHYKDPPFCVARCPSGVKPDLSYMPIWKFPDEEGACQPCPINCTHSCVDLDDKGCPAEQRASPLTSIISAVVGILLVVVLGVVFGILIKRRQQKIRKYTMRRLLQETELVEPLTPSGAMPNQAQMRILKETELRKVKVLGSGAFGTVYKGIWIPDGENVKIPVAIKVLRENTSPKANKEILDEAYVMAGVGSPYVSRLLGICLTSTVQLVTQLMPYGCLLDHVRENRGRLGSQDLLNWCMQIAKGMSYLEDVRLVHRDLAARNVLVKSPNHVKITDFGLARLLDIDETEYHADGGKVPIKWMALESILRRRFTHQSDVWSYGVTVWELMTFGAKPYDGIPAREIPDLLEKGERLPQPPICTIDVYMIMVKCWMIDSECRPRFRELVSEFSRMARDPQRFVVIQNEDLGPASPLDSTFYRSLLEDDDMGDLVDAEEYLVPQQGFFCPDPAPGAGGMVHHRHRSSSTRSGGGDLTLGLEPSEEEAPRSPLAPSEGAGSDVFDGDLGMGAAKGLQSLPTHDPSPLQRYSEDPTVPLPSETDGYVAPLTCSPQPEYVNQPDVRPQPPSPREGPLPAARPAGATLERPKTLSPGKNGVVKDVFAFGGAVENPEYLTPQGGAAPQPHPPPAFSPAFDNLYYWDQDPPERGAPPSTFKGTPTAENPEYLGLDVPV
The target of another assay is GSK3A (Homo sapiens, UniProt P49840). How it is done:
as §1

The target in another assay is IRAK4 (Homo sapiens, UniProt Q9NWZ3). How it is done: as §1
Chain of IRAK4 (Q9NWZ3 whole entry): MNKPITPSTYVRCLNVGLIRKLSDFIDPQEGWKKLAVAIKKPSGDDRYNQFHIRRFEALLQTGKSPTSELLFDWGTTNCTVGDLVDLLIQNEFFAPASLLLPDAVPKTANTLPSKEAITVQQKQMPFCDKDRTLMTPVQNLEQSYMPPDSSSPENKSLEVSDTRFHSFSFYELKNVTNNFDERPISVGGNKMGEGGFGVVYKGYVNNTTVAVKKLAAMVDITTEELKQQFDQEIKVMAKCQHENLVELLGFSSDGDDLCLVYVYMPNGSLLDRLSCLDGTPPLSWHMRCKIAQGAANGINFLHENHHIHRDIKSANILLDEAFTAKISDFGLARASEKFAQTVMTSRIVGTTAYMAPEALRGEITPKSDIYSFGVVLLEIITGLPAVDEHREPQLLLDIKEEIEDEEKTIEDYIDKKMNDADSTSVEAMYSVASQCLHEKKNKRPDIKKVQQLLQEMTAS
Assay [1] concerns the target T4, RSK1(Kin.Dom.2-C-terminal) (Homo sapiens, UniProt Q15418).
T4 construct: gene RPS6KA1; Kin.Dom.2-C-terminal
How it is done: as §1

The next assay concerns the target IRAK1 (Homo sapiens, UniProt P51617). How it is done:
as §1

For another assay, the target named is ULK1 (Homo sapiens, UniProt O75385). How it is done:
as §1

A further assay concerns the target T5, PRP4 (Homo sapiens, UniProt Q13523).
T5 construct: gene PRPF4B
How it is done:
as §1

For the next assay, the target named is MAP3K2 (Homo sapiens, UniProt Q9Y2U5). Here is the method: as §1
A further assay concerns the target CDK3 (Homo sapiens, UniProt Q00526). Here is the method: as §1
The target in a further assay is PLK1 (Homo sapiens, UniProt P53350). Here is the method: as §1
Chain of PLK1 (P53350 whole entry): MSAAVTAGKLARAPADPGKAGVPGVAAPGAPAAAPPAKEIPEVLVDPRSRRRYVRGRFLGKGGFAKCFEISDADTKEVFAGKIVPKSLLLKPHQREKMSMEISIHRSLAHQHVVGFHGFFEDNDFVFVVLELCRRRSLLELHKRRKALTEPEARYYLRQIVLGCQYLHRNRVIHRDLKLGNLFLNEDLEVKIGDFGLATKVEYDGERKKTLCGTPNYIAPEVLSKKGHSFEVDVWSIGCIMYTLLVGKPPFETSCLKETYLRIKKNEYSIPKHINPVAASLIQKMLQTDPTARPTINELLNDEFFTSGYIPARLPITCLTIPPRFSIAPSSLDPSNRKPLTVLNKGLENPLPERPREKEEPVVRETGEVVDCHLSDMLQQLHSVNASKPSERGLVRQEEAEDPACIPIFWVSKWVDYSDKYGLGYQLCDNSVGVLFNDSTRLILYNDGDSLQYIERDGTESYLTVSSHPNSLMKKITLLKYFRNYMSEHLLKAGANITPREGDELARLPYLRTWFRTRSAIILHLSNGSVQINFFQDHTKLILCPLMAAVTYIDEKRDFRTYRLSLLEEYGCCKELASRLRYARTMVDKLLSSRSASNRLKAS
In another assay the target is EGFR(E746-A750del) (Homo sapiens, UniProt P00533, DEL746-750). How it is done: as §1
For assay [2], the target named is T6, TYK2(JH1domain-catalytic) (Homo sapiens, UniProt P29597).
T6 construct: JH1domain-catalytic
How it is done:
as §1

The next assay addresses EPHA2 (Homo sapiens, UniProt P29317). Here is the method: as §1
Another assay concerns the target PIK3CA(E545K) (Homo sapiens, UniProt P42336, E545K). Here is the method:
as §1

The structures appear in SMILES notation.

Chain of EPHA2 (P29317 whole entry): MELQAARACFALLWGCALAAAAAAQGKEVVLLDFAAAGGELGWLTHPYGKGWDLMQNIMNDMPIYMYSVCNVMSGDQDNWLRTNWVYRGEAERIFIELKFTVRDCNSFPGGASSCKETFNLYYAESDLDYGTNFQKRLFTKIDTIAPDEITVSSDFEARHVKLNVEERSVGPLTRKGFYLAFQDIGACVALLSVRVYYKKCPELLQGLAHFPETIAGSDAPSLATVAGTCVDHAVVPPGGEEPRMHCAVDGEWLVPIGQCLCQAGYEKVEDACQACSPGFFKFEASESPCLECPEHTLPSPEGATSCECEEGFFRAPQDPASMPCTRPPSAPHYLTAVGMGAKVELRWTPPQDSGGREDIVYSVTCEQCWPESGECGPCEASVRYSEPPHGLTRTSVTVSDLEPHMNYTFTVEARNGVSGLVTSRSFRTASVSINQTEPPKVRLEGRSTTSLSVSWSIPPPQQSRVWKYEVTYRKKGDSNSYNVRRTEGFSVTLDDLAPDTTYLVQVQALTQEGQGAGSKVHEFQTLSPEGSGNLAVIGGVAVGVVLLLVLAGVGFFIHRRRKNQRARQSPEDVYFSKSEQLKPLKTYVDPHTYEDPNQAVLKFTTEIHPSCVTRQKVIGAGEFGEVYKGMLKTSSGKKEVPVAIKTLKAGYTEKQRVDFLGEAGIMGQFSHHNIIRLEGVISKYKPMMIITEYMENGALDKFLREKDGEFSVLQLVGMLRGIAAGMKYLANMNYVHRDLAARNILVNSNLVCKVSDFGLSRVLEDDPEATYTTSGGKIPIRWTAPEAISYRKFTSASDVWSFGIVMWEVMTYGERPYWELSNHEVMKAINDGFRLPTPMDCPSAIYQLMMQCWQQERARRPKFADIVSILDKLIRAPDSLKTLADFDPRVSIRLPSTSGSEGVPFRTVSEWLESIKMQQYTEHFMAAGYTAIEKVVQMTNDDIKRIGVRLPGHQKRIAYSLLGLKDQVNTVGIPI
Chain of DDR2 (Q16832 whole entry): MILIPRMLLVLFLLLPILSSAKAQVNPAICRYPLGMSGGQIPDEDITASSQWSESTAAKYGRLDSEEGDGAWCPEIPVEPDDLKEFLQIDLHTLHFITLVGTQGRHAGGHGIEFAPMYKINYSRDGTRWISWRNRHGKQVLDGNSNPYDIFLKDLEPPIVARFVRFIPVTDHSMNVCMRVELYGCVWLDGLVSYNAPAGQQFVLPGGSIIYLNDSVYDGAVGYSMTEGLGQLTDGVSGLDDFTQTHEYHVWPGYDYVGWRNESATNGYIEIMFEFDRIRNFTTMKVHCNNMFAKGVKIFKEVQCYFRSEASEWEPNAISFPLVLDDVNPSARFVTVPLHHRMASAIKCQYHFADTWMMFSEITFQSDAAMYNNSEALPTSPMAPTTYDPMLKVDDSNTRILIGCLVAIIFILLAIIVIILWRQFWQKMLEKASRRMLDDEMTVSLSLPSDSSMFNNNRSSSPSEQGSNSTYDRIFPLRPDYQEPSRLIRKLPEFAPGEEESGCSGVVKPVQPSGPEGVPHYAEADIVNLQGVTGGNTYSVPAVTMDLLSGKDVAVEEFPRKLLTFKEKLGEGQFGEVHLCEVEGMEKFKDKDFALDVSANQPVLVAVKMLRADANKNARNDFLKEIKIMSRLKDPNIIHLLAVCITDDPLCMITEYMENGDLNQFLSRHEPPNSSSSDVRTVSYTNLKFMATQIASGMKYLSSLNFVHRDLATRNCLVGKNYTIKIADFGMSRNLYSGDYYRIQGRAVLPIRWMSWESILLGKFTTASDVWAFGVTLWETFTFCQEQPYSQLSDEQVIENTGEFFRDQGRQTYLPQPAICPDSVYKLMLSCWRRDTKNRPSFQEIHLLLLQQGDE
Chain of BRSK2 (Q8IWQ3 whole entry): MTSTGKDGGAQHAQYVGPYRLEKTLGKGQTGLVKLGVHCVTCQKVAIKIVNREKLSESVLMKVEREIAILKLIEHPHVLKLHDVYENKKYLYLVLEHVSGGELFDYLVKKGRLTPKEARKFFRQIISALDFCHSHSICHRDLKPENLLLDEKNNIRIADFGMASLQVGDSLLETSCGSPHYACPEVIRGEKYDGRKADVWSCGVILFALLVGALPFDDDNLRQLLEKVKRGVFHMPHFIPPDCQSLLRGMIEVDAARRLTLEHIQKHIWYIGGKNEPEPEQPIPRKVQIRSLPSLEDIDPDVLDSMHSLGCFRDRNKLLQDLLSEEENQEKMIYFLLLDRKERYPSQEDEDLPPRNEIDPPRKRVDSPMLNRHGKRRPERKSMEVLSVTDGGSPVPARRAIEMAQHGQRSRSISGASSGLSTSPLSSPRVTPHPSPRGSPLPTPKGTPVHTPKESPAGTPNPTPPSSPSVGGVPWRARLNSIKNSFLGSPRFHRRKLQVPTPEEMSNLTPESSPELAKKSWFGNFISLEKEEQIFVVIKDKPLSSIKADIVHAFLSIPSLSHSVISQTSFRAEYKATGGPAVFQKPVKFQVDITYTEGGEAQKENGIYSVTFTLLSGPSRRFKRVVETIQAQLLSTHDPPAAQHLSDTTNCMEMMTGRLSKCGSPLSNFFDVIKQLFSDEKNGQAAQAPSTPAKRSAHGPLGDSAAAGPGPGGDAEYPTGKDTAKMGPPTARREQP

With `CNS(=O)(=O)c1ccc(N(C)C)c(Nc2nc(C)nc3cc(OC)c(OC)cc23)c1` [compound 15, 3-((6,7-dimethoxy-2-methylquinazolin-4-yl)amino)-4-(dimethylamino)-N-methylbenzenesulfonamide], the inhibition (usually the share of the control response that was lost under treatment) at 1 µM at NDR2 amounted to 6%; at BRSK2, 21%; on PCTK2, 0%; on TXK, 5%; at MUSK it was 0%; on LYN it was 0%. In addition, the inhibition at 1 µM on ADCK3 is 9%; at DDR2 it was 38%; on PIK3CA(E545A), 1%; at EPHA5, 0%; at ERBB2 it was 1%; at GSK3A, 0%. For the same compound, the inhibition at 1 µM on IRAK4 was 0%; in assay [1], 5%; at IRAK1, 11%; at ULK1 it was 31%; on PRP4, 52%; at MAP3K2, 18%. Further, the inhibition at 1 µM on CDK3 came to 56%; on PLK1, 0%; on EGFR(E746-A750del) it was 31%; in assay [2], 0%; at EPHA2, 0%; at PIK3CA(E545K), 21%.

The values are drawn from paper PMC7180948, “New Insights into 4-Anilinoquinazolines as Inhibitors of Cardiac Troponin I–Interacting Kinase (TNNi3K)” (Molecules, 2020).
